Measured values reported in patent US20060258683A1, “Para-sulfonyl substituted phenyl compounds as modulators of ppars” (priority 2003, published 2006).

Key:
Assay type in all cases: cell-based
PPARα = biological target: T1, PPARα (Homo sapiens, UniProt Q07869); assay: PPAR-alpha EC50, functional cell (transactivation) assay
T1 construct: expressed in transfected cells; host or cells: CV-1 cells
T1 sequence (Q07869 239-466 limits assumed): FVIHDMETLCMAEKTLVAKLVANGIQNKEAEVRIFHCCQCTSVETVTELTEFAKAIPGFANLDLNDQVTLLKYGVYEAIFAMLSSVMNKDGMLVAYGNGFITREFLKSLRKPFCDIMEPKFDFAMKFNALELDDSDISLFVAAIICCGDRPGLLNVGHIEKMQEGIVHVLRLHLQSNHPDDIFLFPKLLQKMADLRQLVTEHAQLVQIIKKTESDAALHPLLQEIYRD
Text: (§1) The following transfection assay methods are provided by way of example only. Compounds may be screened for functional potency in transient transfection assays in CV-1 cells for their ability to activate the PPAR subtypes (transactivation assay). A previously established chimeric receptor system was utilized to allow comparison of the relative transcriptional activity of the receptor subtypes on the same target gene and to prevent endogenous receptor activation from complicating the interpretation of results. See, for example, Lehmann, J. M.; Moore, L. B.; Smith-Oliver, T. A; Wilkinson, W. O.; Willson, T. M.; Kliewer, S. A., An antidiabetic thiazolidinedione is a high affinity ligand for peroxisome proliferator-activated receptor γ(PPARγ), J. Biol. Chem., 1995, 270, 12953-6. The ligand binding domains for murine and human PPAR-alpha, PPAR-gamma, and PPAR-delta are each fused to the yeast transcription factor GAL4 DNA binding domain. CV-1 cells were transiently transfected with expression vectors for the respective PPAR chimera along with a reporter construct containing five copies of the GAL4 DNA binding site driving expression of secreted placental alkaline phosphatase (SPAP) and p-galactosidase. After 16 h, the medium is exchanged to DME medium supplemented with 10% delipidated fetal calf serum and the test compound at the appropriate concentration. After an additional 24 h, cell extracts are prepared and assayed for alkaline phosphatase and pgalactosidase activity. Alkaline phosphatase activity was corrected for transfection efficiency using the p-galactosidase activity as an internal standard (see, for example, Kliewer, S. A., et. al. Cell 1995, 83, 813-819. Rosiglitazone is used as a positive control in the hPPARγ assay. The positive control in the hPPAR-alpha and hPPAR-delta assays was 2-[4-(2-(3-(4-fluorophenyl)-1heptylureido)ethyl)-phenoxy]-2-methylpropionic acid, which can be prepared as described in Brown, Peter J., et. al. Synthesis (7), 778-782 (1997), or patent publication WO 9736579.
(§2) Compounds of Examples 1-41 were assayed to measure their biological activity with respect to their EC50 values and efficacy for modulating PPAR-alpha, PPAR-gamma, and PPAR-delta as set forth in Table 2.

PPARδ = biological target: T2, PPARδ (Homo sapiens, UniProt Q03181); assay: PPAR-delta EC50, functional cell (transactivation) assay
T2 construct: expressed in transfected cells; host or cells: CV-1 cells
T2 sequence (Q03181 211-439 limits assumed): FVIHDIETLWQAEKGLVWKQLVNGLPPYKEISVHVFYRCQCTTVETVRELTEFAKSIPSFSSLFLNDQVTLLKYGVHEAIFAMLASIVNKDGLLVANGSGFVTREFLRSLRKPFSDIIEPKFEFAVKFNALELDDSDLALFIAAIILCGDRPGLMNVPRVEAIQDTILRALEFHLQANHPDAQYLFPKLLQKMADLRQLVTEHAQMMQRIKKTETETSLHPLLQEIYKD
Text: as §1, §2

PPARγ = biological target: T3, PPARγ (Homo sapiens, UniProt P37231); assay: PPAR-gamma EC50, functional cell (transactivation) assay
T3 construct: expressed in transfected cells; host or cells: CV-1 cells
T3 sequence (P37231 238-503 limits assumed): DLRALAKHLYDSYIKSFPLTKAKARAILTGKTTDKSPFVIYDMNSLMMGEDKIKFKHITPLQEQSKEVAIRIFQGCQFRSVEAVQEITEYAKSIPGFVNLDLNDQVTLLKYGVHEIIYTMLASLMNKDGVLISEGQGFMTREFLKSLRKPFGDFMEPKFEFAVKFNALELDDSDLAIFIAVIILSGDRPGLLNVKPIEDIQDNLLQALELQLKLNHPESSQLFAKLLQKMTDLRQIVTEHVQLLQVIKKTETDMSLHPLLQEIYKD
Text: as §1, §2

| EC50 (PPARα) [µM] | EC50 (PPARδ) [µM] | EC50 (PPARγ) [µM] | SMILES |
| --- | --- | --- | --- |
| > 100 | 1 to 100 | > 100 | CC(C)(Oc1ccc(S(=O)(=O)N2CCN(c3ccc(F)cc3)CC2)cc1)C(=O)O |
| 1 to 100 | 1 to 100 | > 100 | Cc1ccc(N2CCN(S(=O)(=O)c3ccc(OC(C)(C)C(=O)O)cc3)CC2)c(C)c1 |
| > 100 | 1 to 100 | > 100 | CC(C)(Oc1ccc(S(=O)(=O)N2CCN(c3ccccc3)CC2)cc1)C(=O)O |
| > 100 | 1 to 100 | > 100 | CC(C)(Oc1ccc(S(=O)(=O)N2CCN(c3ccccc3F)CC2)cc1)C(=O)O |
| 1 to 100 | 1 to 100 | 1 to 100 | CCc1cnc(N2CCN(S(=O)(=O)c3ccc(OC(C)(C)C(=O)O)cc3)CC2)nc1 |
| 1 to 100 | 1 to 100 | 1 to 100 | CC(C)(Oc1ccc(S(=O)(=O)N2CCN(c3ccc(Cl)c(Cl)c3)CC2)cc1)C(=O)O |
| > 100 | > 100 | > 100 | CC(C)(Oc1ccc(S(=O)(=O)N2CCN(c3ccccn3)CC2)cc1)C(=O)O |
| > 100 | 1 to 100 | > 100 | Cc1cccc(N2CCN(S(=O)(=O)c3ccc(OC(C)(C)C(=O)O)cc3)CC2C)c1 (stereo not drawn) |
| > 100 | 1 to 100 | 1 to 100 | CC(C)(Oc1ccc(S(=O)(=O)N2CCN(c3cccc(C(F)(F)F)c3)CC2)cc1)C(=O)O |
| 1 to 100 | < 1 | 1 to 100 | Cc1cc(S(=O)(=O)N2CCN(c3ccc(Cl)c(Cl)c3)CC2)ccc1OC(C)(C)C(=O)O |
| > 100 | < 1 | 1 to 100 | Cc1cc(S(=O)(=O)N2CCN(c3ccc(Cl)cc3)CC2)ccc1OC(C)(C)C(=O)O |
| > 100 | 1 to 100 | 1 to 100 | Cc1ccc(N2CCN(S(=O)(=O)c3ccc(OC(C)(C)C(=O)O)c(C)c3)CC2)c(C)c1 |
| > 100 | < 1 | 1 to 100 | Cc1cccc(N2CCN(S(=O)(=O)c3ccc(OC(C)(C)C(=O)O)c(C)c3)CC2C)c1 (stereo not drawn) |
| > 100 | 1 to 100 | > 100 | Cc1ccc(N2CCN(S(=O)(=O)c3ccc(OC(C)(C)C(=O)O)c(C)c3)CC2C)cc1C (stereo not drawn) |
| > 100 | 1 to 100 | > 100 | Cc1cc(S(=O)(=O)N2CCN(c3cc(Cl)ccc3C)C(C)C2)ccc1OC(C)(C)C(=O)O (stereo not drawn) |
| > 100 | 1 to 100 | > 100 | Cc1cc(S(=O)(=O)N2CCN(CCc3ccccc3)CC2)ccc1OC(C)(C)C(=O)O |
| > 100 | 1 to 100 | > 100 | Cc1cc(S(=O)(=O)N2CCN(c3ccc(C#N)cc3)CC2)ccc1OC(C)(C)C(=O)O |
| > 100 | 1 to 100 | 1 to 100 | Cc1cc(S(=O)(=O)N2CCN(Cc3ccc(F)cc3)CC2)ccc1OC(C)(C)C(=O)O |
| > 100 | 1 to 100 | 1 to 100 | COc1ccc(N2CCN(S(=O)(=O)c3ccc(OC(C)(C)C(=O)O)c(C)c3)CC2)cc1 |
| > 100 | < 1 | 1 to 100 | Cc1cc(S(=O)(=O)N2CCN(c3cccc(Br)c3)CC2)ccc1OC(C)(C)C(=O)O |
| > 100 | 1 to 100 | 1 to 100 | Cc1cc(S(=O)(=O)N2CCN(c3ccc(C(C)(C)C)cc3)CC2)ccc1OC(C)(C)C(=O)O |

| EC50 (PPARα) [µM] | EC50 (PPARδ) [µM] | EC50 (PPARγ) [µM] | SMILES |
| --- | --- | --- | --- |
| 1 to 100 | 1 to 100 | 1 to 100 | COc1ccc(N2CCN(S(=O)(=O)c3ccc(OC(C)(C)C(=O)O)c(C)c3)CC2)cc1OC |
| > 100 | 1 to 100 | 1 to 100 | Cc1cc(S(=O)(=O)N2CCN(c3ccc(C(F)(F)F)cc3[N+](=O)[O-])CC2)ccc1OC(C)(C)C(=O)O |
| > 100 | 1 to 100 | 1 to 100 | COc1ccccc1N1CCN(S(=O)(=O)c2ccc(OC(C)(C)C(=O)O)c(C)c2)CC1 |
| > 100 | 1 to 100 | > 100 | Cc1cc(S(=O)(=O)N2CCN(C3CCCCC3)CC2)ccc1OC(C)(C)C(=O)O |
| > 100 | 1 to 100 | 1 to 100 | Cc1ccc(C)c(N2CCN(S(=O)(=O)c3ccc(OC(C)(C)C(=O)O)c(C)c3)CC2)c1 |
| > 100 | 1 to 100 | 1 to 100 | Cc1cc(S(=O)(=O)N2CCN(CC3CCCCC3)CC2)ccc1OC(C)(C)C(=O)O |
| > 100 | 1 to 100 | 1 to 100 | Cc1cc(S(=O)(=O)N2CCN(c3ccccc3C#N)CC2)ccc1OC(C)(C)C(=O)O |
| > 100 | 1 to 100 | 1 to 100 | Cc1cc(S(=O)(=O)N2CCN(c3ccc([N+](=O)[O-])cc3)CC2)ccc1OC(C)(C)C(=O)O |
| > 100 | 1 to 100 | > 100 | Cc1cc(S(=O)(=O)N2CCN(C(=O)c3ccco3)CC2)ccc1OC(C)(C)C(=O)O |
| 1 to 100 | 1 to 100 | 1 to 100 | COc1cccc(N2CCN(S(=O)(=O)c3ccc(OC(C)(C)C(=O)O)c(C)c3)CC2)c1 |
| 1 to 100 | 1 to 100 | 1 to 100 | Cc1cc(S(=O)(=O)N2CCN(C(c3ccc(F)cc3)c3ccc(F)cc3)CC2)ccc1OC(C)(C)C(=O)O |
| > 100 | 1 to 100 | 1 to 100 | Cc1cc(S(=O)(=O)N2CCN(c3cccc(Cl)c3)CC2)ccc1OC(C)(C)C(=O)O |
| > 100 | 1 to 100 | 1 to 100 | Cc1cc(S(=O)(=O)N2CCN(c3ccccc3Cl)CC2)ccc1OC(C)(C)C(=O)O |
| > 100 | < 1 | 1 to 100 | Cc1cc(S(=O)(=O)N2CCN(c3ccccc3F)CC2)ccc1OC(C)(C)C(=O)O |
| 1 to 100 | 1 to 100 | 1 to 100 | CCOc1ccccc1N1CCN(S(=O)(=O)c2ccc(OC(C)(C)C(=O)O)c(C)c2)CC1 |
| > 100 | 1 to 100 | 1 to 100 | Cc1cc(S(=O)(=O)N2CCN(C/C=C/c3ccccc3)CC2)ccc1OC(C)(C)C(=O)O |
| > 100 | < 1 | 1 to 100 | Cc1cc(S(=O)(=O)N2CCN(c3ccc(F)cc3)CC2)ccc1OC(C)(C)C(=O)O |
| > 100 | 1 to 100 | 1 to 100 | Cc1cc(S(=O)(=O)N2CCN(c3ccccc3)CC2)ccc1OC(C)(C)C(=O)O |
| > 100 | 1 to 100 | 1 to 100 | Cc1cc(S(=O)(=O)N2CCN(C(c3ccccc3)c3ccccc3)CC2)ccc1OC(C)(C)C(=O)O |
| 1 to 100 | 1 to 100 | 1 to 100 | Cc1cc(S(=O)(=O)N2CCN(C(c3ccccc3)c3ccc(Cl)cc3)CC2)ccc1OC(C)(C)C(=O)O (stereo not drawn) [drawing 116] |
| 1 to 100 | 1 to 100 | 1 to 100 | Cc1cc(S(=O)(=O)N2CCN(C(c3ccccc3)c3ccc(Cl)cc3)CC2)ccc1OC(C)(C)C(=O)O (stereo not drawn) [drawing 127] |
